The AC50 is the concentration giving half of the maximal activity seen.

For the assay, the target named is T1, Human pyruvate kinase R (PKR) (Homo sapiens, UniProt P30613).
T1 construct: Human pyruvate kinase R (PKR), residues 14-574; 6x-His (N, cleaved yes); 8x-Arg (N, cleaved yes); SUMO (N, cleaved yes); host or cells: E. coli
In words: Biochemical assay for activation of pyruvate kinase R (Kinase-Glo luminescence, ATP generation). The conditions noted are these: for AC50: 0.1 nM PKR, 2 mM FBP, 0.3 mM ADP, 0.1 mM PEP; for PKR % activation: maximal activation level relative to the activation level achieved by AG-348 @ 10 μM. How it is done: Proteins were translated as fusions with 6×-His, 8×-Arg, and SUMO at the N-terminus. […] All proteins were cloned, expressed in E. coli, and purified using similar protocols. Cells were grown at 30° C. in Luria-Bertani broth supplemented with 0.4% glucose to OD600=0.8 and induced with 0.4 mM IPTG at 16° C. for 18 hours. Cells were harvested by centrifugation, resuspended in 50 mM potassium phosphate pH 8.0, 500 mM NaCl, 25 mM imidazole pH 8.0, and 3 mM β-mercaptoethanol. Cells were lysed using a LM20 microfluidizer from Microfluidics (Westwood, Mass.). The crude lysate was immediately supplemented with 0.2 mM phenylmethylsulfonyl fluoride (PMSF) and centrifuged at 20,000 g for 20 minutes. The soluble fraction was subsequently incubated with 2 mL Ni-NTA (GE Healthcare) per 1,000 ODs for 1 hour at 4° C. Following incubation with the Ni-NTA resin, lysate was removed by pelleting resin at 2,500 g for 3 minutes and washed 3 times with 9 bed volumes of 50 mM potassium phosphate pH 8.0, 500 mM NaCl, 25 mM imidazole, and 3 mM β-mercaptoethanol. Following the batch wash Ni-NTA resin was loaded onto a gravity column and His-tagged protein was eluted with 6 bed volumes of 10 mM Tris/HCl pH 8.0, 200 mM NaCl, 500 mM imidazole, and 3 mM β-mercaptoethanol. Eluted protein was dialyzed overnight against 10 mM Tris/HCl pH 8.0, 200 mM NaCl, and 1 mM DTT and the 6×-His-8×-Arg-SUMO-tag was cleaved using a 20:1 molar ratio of protein:3C protease. The protein was purified by anion exchange chromatography on a HiTrapQ or MonoQ 10/100 GL column (GE Healthcare) via a linear NaCl gradient and twice by size exclusion chromatography using a Superdex S200 26/60 column (GE Healthcare) run in 10 mM Tris/HCl pH 8.0, 200 mM NaCl, 10 mM MgCl2, 1 mM DTT. Proteins were concentrated to ˜12 mg/mL for crystallization and flash frozen for storage.
Biochemical Assay for Activation of Pyruvate Kinase R
Activation of pyruvate kinase R (PKR) and pyruvate kinase M2 (PKM2) were measured using a luminescence based measurement of ATP generation and the Kinase-Glo luminescent kinase reagent kit.
(In general: Kinase-Glo measures the ATP left after a reaction by luminescence.)

T1 sequence (P30613 14-574): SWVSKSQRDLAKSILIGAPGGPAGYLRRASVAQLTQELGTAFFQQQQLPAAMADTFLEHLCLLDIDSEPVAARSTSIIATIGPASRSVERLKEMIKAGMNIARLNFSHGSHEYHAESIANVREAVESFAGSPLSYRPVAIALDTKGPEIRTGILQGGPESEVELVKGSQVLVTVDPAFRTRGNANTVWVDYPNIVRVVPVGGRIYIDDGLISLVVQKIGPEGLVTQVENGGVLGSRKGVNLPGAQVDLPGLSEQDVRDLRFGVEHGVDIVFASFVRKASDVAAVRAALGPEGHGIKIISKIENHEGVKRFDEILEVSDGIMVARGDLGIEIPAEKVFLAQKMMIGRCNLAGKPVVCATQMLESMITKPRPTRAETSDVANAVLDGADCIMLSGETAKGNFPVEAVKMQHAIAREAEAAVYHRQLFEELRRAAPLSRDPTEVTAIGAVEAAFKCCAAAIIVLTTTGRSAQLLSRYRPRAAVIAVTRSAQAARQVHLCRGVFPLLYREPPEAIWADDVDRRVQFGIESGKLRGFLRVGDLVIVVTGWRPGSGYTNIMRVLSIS

`O=C([C@H](CO)c1ncccc1F)N1Cc2cn(S(=O)(=O)c3ccc4ncccc4c3)nc2C1` (single isomer, unassigned) [Compound 103, (2S)-2-(3-fluoropyridin-2-yl)-3-hydroxy-1-[2-(quinoline-6-sulfonyl)-2H,4H,5H,6H-pyrrolo[3,4-c]pyrazol-5-yl]propan-1-one or (2R)-2-(3-fluoropyridin-2-yl)-3-hydroxy-1-[2-(quinoline-6-sulfonyl)-2H,4H,5H,6H-pyrrolo[3,4-c]pyrazol-5-yl]propan-1-one] returned an AC50 of 0.22 µM and a PKR % activation of 41%.

For the compound `O=C([C@@H](c1ccccc1)N1CCOCC1)N1Cc2cn(S(=O)(=O)c3ccc(OC(F)F)cc3)nc2C1` (single isomer, unassigned) [Compound 107, (2R)-1-{2-[4-(difluoromethoxy)benzenesulfonyl]-2H,4H,5H,6H-pyrrolo[3,4-c]pyrazol-5-yl}-2-(morpholin-4-yl)-2-phenylethan-1-one or (2S)-1-{2-[4-(difluoromethoxy)benzenesulfonyl]-2H,4H,5H,6H-pyrrolo[3,4-c]pyrazol-5-yl}-2-(morpholin-4-yl)-2-phenylethan-1-one], the AC50 was more than 10 µM and the PKR % activation is on record as 0%.

The compound `O=C([C@@H](c1ccccc1)N1CCOCC1)N1Cc2cn(S(=O)(=O)c3ccc(OC(F)F)cc3)nc2C1` (single isomer, unassigned) [Compound 108, (2R)-1-{2-[4-(difluoromethoxy)benzenesulfonyl]-2H,4H,5H,6H-pyrrolo[3,4-c]pyrazol-5-yl}-2-(morpholin-4-yl)-2-phenylethan-1-one or (2S)-1-{2-[4-(difluoromethoxy)benzenesulfonyl]-2H,4H,5H,6H-pyrrolo[3,4-c]pyrazol-5-yl}-2-(morpholin-4-yl)-2-phenylethan-1-one] had an AC50 of more than 10 µM and a PKR % activation of 0%.

Turning to `C[C@@H](O)[C@H](C(=O)N1Cc2cn(S(=O)(=O)c3ccc4ncsc4c3)nc2C1)c1ccccc1` [Compound 4], the concentration at half-maximal activity (AC50) was determined as 1.81 µM and the PKR % activation is listed as 100%.

Consider `C[C@@H](O)[C@H](C(=O)N1Cc2cn(S(=O)(=O)c3ccc4ncsc4c3)nc2C1)c1ccccc1` [Compound 6], for which half-maximal activity (AC50) was put at 2.53 µM and the PKR % activation worked out at 150%.

As to `C[C@@H](O)[C@H](C(=O)N1Cc2cn(S(=O)(=O)c3ccc(OC(F)F)cc3)nc2C1)c1ccccc1` [Compound 9], the AC50 is 0.147 µM and the PKR % activation amounted to 131%.

For `C[C@@H](O)[C@H](C(=O)N1Cc2cn(S(=O)(=O)c3ccc(OC(F)F)cc3)nc2C1)c1ccccc1` [Compound 10], the half-maximal activity concentration (AC50) worked out at 0.455 µM and the PKR % activation was determined as 165%.

Take `C[C@@H](O)[C@H](C(=O)N1Cc2cn(S(=O)(=O)c3ccc(OC(F)F)cc3)nc2C1)c1ccccc1` [Compound 11]: the concentration at half-maximal activity (AC50) worked out at 7.27 µM and the PKR % activation is on record as 164%.

Regarding `NCC(C(=O)N1Cc2cn(S(=O)(=O)c3ccc4ncsc4c3)nc2C1)c1ccccc1` (centres unmarked) [Compound 13, 3-amino-1-[2-(1,3-benzothiazole-6-sulfonyl)-2H,4H,5H,6H-pyrrolo[3,4-c]pyrazol-5-yl]-2-phenylpropan-1-one], the activity was half-maximal at 0.167 µM (AC50).

The compound `N[C@@H](C(=O)N1Cc2cn(S(=O)(=O)c3ccc4c(c3)NCCO4)nc2C1)c1ccccc1` [Compound 16, (2R)-2-amino-1-[2-(3,4-dihydro-2H-1,4-benzoxazine-6-sulfonyl)-2H,4H,5H,6H-pyrrolo[3,4-c]pyrazol-5-yl]-2-phenylethan-1-one] came in with an AC50 of 0.156 µM.

On to `O=C(N1Cc2cn(S(=O)(=O)c3ccc4ncsc4c3)nc2C1)C1(c2ccccc2)CCOC1` (centres unmarked) [Compound 18, 6-{[5-(3-phenyloxolane-3-carbonyl)-2H,4H,5H,6H-pyrrolo[3,4-c]pyrazol-2-yl]sulfonyl}-1,3-benzothiazole], for which the activity was half-maximal at 0.083 µM (AC50).

The compound `O=C(N1Cc2cn(S(=O)(=O)c3ccc4ncsc4c3)nc2C1)C1(c2ccccc2)COCCN1` (centres unmarked) [Compound 21, 6-{[5-(3-phenylmorpholine-3-carbonyl)-2H,4H,5H,6H-pyrrolo[3,4-c]pyrazol-2-yl]sulfonyl}-1,3-benzothiazole] displayed an AC50 of 0.209 µM.

In the case of `N[C@@H](C(=O)N1Cc2cn(S(=O)(=O)c3ccc4ncsc4c3)nc2C1)c1ccc(F)cc1` [Compound 28, (2R)-2-amino-1-[2-(1,3-benzothiazole-6-sulfonyl)-2H,4H,5H,6H-pyrrolo[3,4-c]pyrazol-5-yl]-2-(4-fluorophenyl)ethan-1-one], the half-maximal activity concentration (AC50) amounted to 0.013 µM.

In the case of `N[C@@H](C(=O)N1Cc2cn(S(=O)(=O)c3ccc(OC(F)F)cc3)nc2C1)c1cccc(OC(F)(F)F)c1` [Compound 30, (2R)-2-amino-1-{2-[4-(difluoromethoxy)benzenesulfonyl]-2H,4H,5H,6H-pyrrolo[3,4-c]pyrazol-5-yl}-2-[3-(trifluoromethoxy)phenyl]ethan-1-one], the AC50 was 0.371 µM.

Take `CC(C)(O)[C@H](C(=O)N1Cc2cn(S(=O)(=O)c3ccc4occc4c3)nc2C1)c1ccccc1` [Compound 33, (2R)-1-[2-(1-benzofuran-5-sulfonyl)-2H,4H,5H,6H-pyrrolo[3,4-c]pyrazol-5-yl]-3-hydroxy-3-methyl-2-phenylbutan-1-one]: the AC50 was 0.13 µM.

With `CC(C)(O)[C@@H](C(=O)N1Cc2cn(S(=O)(=O)c3ccc4occc4c3)nc2C1)c1ccccc1` [Compound 34, (2S)-1-[2-(1-benzofuran-5-sulfonyl)-2H,4H,5H,6H-pyrrolo[3,4-c]pyrazol-5-yl]-3-hydroxy-3-methyl-2-phenylbutan-1-one], the AC50 is 0.21 µM.

`N[C@H](C(=O)N1Cc2cn(S(=O)(=O)c3ccc4ncsc4c3)nc2C1)c1ccccc1F` [Compound 38, (2S)-2-amino-1-[2-(1,3-benzothiazole-6-sulfonyl)-2H,4H,5H,6H-pyrrolo[3,4-c]pyrazol-5-yl]-2-(2-fluorophenyl)ethan-1-one]: the half-maximal activity concentration (AC50) was found to be 0.27 µM.

In turn, `N[C@@H](C(=O)N1Cc2cn(S(=O)(=O)c3ccc(OC(F)F)cc3)nc2C1)c1ccc(F)cc1` [Compound 49, (2R)-2-amino-1-{2-[4-(difluoromethoxy)benzenesulfonyl]-2H,4H,5H,6H-pyrrolo[3,4-c]pyrazol-5-yl}-2-(4-fluorophenyl)ethan-1-one] registered a half-maximal activity concentration (AC50) of 0.017 µM.

Regarding `N[C@@H](C(=O)N1Cc2cn(S(=O)(=O)c3ccc(OC(F)F)cc3)nc2C1)c1cccc(Cl)c1` [Compound 50, (2R)-2-amino-2-(3-chlorophenyl)-1-{2-[4-(difluoromethoxy)benzenesulfonyl]-2H,4H,5H,6H-pyrrolo[3,4-c]pyrazol-5-yl}ethan-1-one], the half-maximal activity concentration (AC50) was determined as 0.071 µM.

Take `N[C@@H](C(=O)N1Cc2cn(S(=O)(=O)c3ccc(OC(F)F)cc3)nc2C1)c1ccc(Cl)cc1` [Compound 51, (2R)-2-amino-2-(4-chlorophenyl)-1-{2-[4-(difluoromethoxy)benzenesulfonyl]-2H,4H,5H,6H-pyrrolo[3,4-c]pyrazol-5-yl}ethan-1-one]: the activity was half-maximal at 0.023 µM (AC50).

`N[C@@H](C(=O)N1Cc2cn(S(=O)(=O)c3ccc4ncsc4c3)nc2C1)c1ccccc1Cl` [Compound 52, (2R)-2-amino-1-[2-(1,3-benzothiazole-6-sulfonyl)-2H,4H,5H,6H-pyrrolo[3,4-c]pyrazol-5-yl]-2-(2-chlorophenyl)ethan-1-one] displayed an AC50 of 0.013 µM.

Turning to `N[C@@H](C(=O)N1Cc2cn(S(=O)(=O)c3ccc4ncsc4c3)nc2C1)c1cccc(Cl)c1` [Compound 53, (2R)-2-amino-1-[2-(1,3-benzothiazole-6-sulfonyl)-2H,4H,5H,6H-pyrrolo[3,4-c]pyrazol-5-yl]-2-(3-chlorophenyl)ethan-1-one], the AC50 worked out at 0.036 µM.

Compound `N[C@@H](C(=O)N1Cc2cn(S(=O)(=O)c3ccc(OC(F)F)cc3)nc2C1)c1ccccc1F` [Compound 56, (2R)-2-amino-1-{2-[4-(difluoromethoxy)benzenesulfonyl]-2H,4H,5H,6H-pyrrolo[3,4-c]pyrazol-5-yl}-2-(2-fluorophenyl)ethan-1-one] returned an AC50 of 0.03 µM.

On to `N[C@@H](C(=O)N1Cc2cn(S(=O)(=O)c3ccc4c(c3)NCCO4)nc2C1)c1ccccc1F` [Compound 57, (2R)-2-amino-1-[2-(3,4-dihydro-2H-1,4-benzoxazine-6-sulfonyl)-2H,4H,5H,6H-pyrrolo[3,4-c]pyrazol-5-yl]-2-(2-fluorophenyl)ethan-1-one], for which the activity was half-maximal at 0.017 µM (AC50).

For the origin of these results see patent publication US20230159538A1, “PYRROLIDINE-PYRAZOLES AS PYRUVATE KINASE ACTIVATORS” (Global Blood Therapeutics, Inc., priority 2020, published 2023).
